Test results reported in PubChem BioAssay (NCI).
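Compound exposure: 48 hours, 5 concentrations, 96-well plates. GI50 marks 50% less growth. TGI: total growth inhibition.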

Assays:
Test in all cases: NCI tumour cell line growth inhibition, 48 h
A498 renal = tested on: A498 renal
KM12 colon = tested on: KM12 colon
CCRF-CEM leukemia = tested on: CCRF-CEM leukemia
IGROV1 ovarian = tested on: IGROV1 ovarian
MDA-MB-231 breast = tested on: MDA-MB-231 breast
SK-MEL-28 melanoma = tested on: SK-MEL-28 melanoma
SK-MEL-2 melanoma = tested on: SK-MEL-2 melanoma
MCF7 breast = tested on: MCF7 breast
RXF 393 renal = tested on: RXF 393 renal
HL-60(TB) leukemia = tested on: HL-60(TB) leukemia
ACHN renal = tested on: ACHN renal
TK-10 renal = tested on: TK-10 renal
OVCAR-5 ovarian = tested on: OVCAR-5 ovarian
HOP-62 NSCLC = tested on: HOP-62 NSCLC
EKVX NSCLC = tested on: EKVX NSCLC
HCT-116 colon = tested on: HCT-116 colon
SK-MEL-5 melanoma = tested on: SK-MEL-5 melanoma
SW-620 colon = tested on: SW-620 colon
NCI-H460 lung = tested on: NCI-H460 lung
T-47D breast = tested on: T-47D breast
SNB-19 CNS = tested on: SNB-19 CNS
K-562 leukemia = tested on: K-562 leukemia
SF-539 CNS = tested on: SF-539 CNS
SN12C renal = tested on: SN12C renal
SNB-75 CNS = tested on: SNB-75 CNS
NCI-H226 lung = tested on: NCI-H226 lung
SF-268 CNS = tested on: SF-268 CNS
HCT-15 colon = tested on: HCT-15 colon
BT-549 breast = tested on: BT-549 breast
SK-OV-3 ovarian = tested on: SK-OV-3 ovarian
OVCAR-4 ovarian = tested on: OVCAR-4 ovarian
HS 578T breast = tested on: HS 578T breast
MALME-3M melanoma = tested on: MALME-3M melanoma
RPMI-8226 leukemia = tested on: RPMI-8226 leukemia
HOP-92 NSCLC = tested on: HOP-92 NSCLC
NCI/ADR-RES ovarian = tested on: NCI/ADR-RES ovarian
OVCAR-3 ovarian = tested on: OVCAR-3 ovarian
SR leukemia = tested on: SR leukemia
A549 NSCLC = tested on: A549 NSCLC
MDA-MB-435 = tested on: MDA-MB-435
786-0 renal = tested on: 786-0 renal
NCI-H23 lung = tested on: NCI-H23 lung
HT29 colon = tested on: HT29 colon
M14 melanoma = tested on: M14 melanoma
LOX IMVI melanoma = tested on: LOX IMVI melanoma
NCI-H522 lung = tested on: NCI-H522 lung
CAKI-1 renal = tested on: CAKI-1 renal
COLO 205 colon = tested on: COLO 205 colon
U251 CNS = tested on: U251 CNS
MOLT-4 leukemia = tested on: MOLT-4 leukemia
UO-31 renal = tested on: UO-31 renal
OVCAR-8 ovarian = tested on: OVCAR-8 ovarian
HCC-2998 colon = tested on: HCC-2998 colon
DU-145 prostate = tested on: DU-145 prostate
UACC-62 melanoma = tested on: UACC-62 melanoma
SF-295 CNS = tested on: SF-295 CNS
UACC-257 melanoma = tested on: UACC-257 melanoma
PC-3 prostate = tested on: PC-3 prostate

CCN(CC)c1ccc(/C=C/c2cc(C)c3ccccc3n2)cc1
GI50 (A498 renal): 2.32 µM | TGI (A498 renal): 15.4 µM | GI50 (KM12 colon): 2.31 µM | TGI (KM12 colon): 13.2 µM | GI50 (CCRF-CEM leukemia): 2.85 µM | TGI (CCRF-CEM leukemia): 87.8 µM | GI50 (IGROV1 ovarian): 2.81 µM | TGI (IGROV1 ovarian): 25.7 µM | GI50 (MDA-MB-231 breast): 3.54 µM | TGI (MDA-MB-231 breast): 13.3 µM | GI50 (SK-MEL-28 melanoma): 6.75 µM | TGI (SK-MEL-28 melanoma): > 100 µM | GI50 (SK-MEL-2 melanoma): 2.61 µM | TGI (SK-MEL-2 melanoma): 6.78 µM | GI50 (MCF7 breast): 2.31 µM | TGI (MCF7 breast): 75.8 µM | GI50 (RXF 393 renal): 3.43 µM | TGI (RXF 393 renal): 9.44 µM | GI50 (HL-60(TB) leukemia): 3.42 µM | TGI (HL-60(TB) leukemia): 27.8 µM | GI50 (ACHN renal): 6.12 µM | TGI (ACHN renal): > 100 µM | GI50 (TK-10 renal): 4.47 µM | TGI (TK-10 renal): 13.8 µM | GI50 (OVCAR-5 ovarian): 7.09 µM | TGI (OVCAR-5 ovarian): 75.3 µM | GI50 (HOP-62 NSCLC): 4.6 µM | TGI (HOP-62 NSCLC): 34.7 µM | GI50 (EKVX NSCLC): 4.95 µM | TGI (EKVX NSCLC): 44.9 µM | GI50 (HCT-116 colon): 4.06 µM | TGI (HCT-116 colon): 16.4 µM | GI50 (SK-MEL-5 melanoma): 3.1 µM | TGI (SK-MEL-5 melanoma): 11.8 µM | GI50 (SW-620 colon): 1.87 µM | TGI (SW-620 colon): 9.21 µM | GI50 (NCI-H460 lung): 3 µM | TGI (NCI-H460 lung): 11.7 µM | GI50 (T-47D breast): 4.46 µM | TGI (T-47D breast): > 100 µM | GI50 (SNB-19 CNS): 5.92 µM | TGI (SNB-19 CNS): > 100 µM | GI50 (K-562 leukemia): 0.64 µM | TGI (K-562 leukemia): 15 µM | GI50 (SF-539 CNS): 3.2 µM | TGI (SF-539 CNS): 9.61 µM | GI50 (SN12C renal): 7.27 µM | TGI (SN12C renal): > 100 µM | GI50 (SNB-75 CNS): 3.09 µM | TGI (SNB-75 CNS): 9.4 µM | GI50 (NCI-H226 lung): 11.9 µM | TGI (NCI-H226 lung): 91.3 µM | GI50 (SF-268 CNS): 5.46 µM | TGI (SF-268 CNS): 74.4 µM | GI50 (HCT-15 colon): 2.27 µM | TGI (HCT-15 colon): 26.4 µM | GI50 (BT-549 breast): 10.3 µM | TGI (BT-549 breast): 62.9 µM | GI50 (SK-OV-3 ovarian): 3.41 µM | TGI (SK-OV-3 ovarian): 17.8 µM | GI50 (OVCAR-4 ovarian): 8.37 µM | TGI (OVCAR-4 ovarian): > 100 µM | GI50 (HS 578T breast): 2.09 µM | TGI (HS 578T breast): 5.75 µM | GI50 (MALME-3M melanoma): 3.39 µM | TGI (MALME-3M melanoma): 22.8 µM | GI50 (RPMI-8226 leukemia): 3.11 µM | TGI (RPMI-8226 leukemia): 11.3 µM | GI50 (HOP-92 NSCLC): 3.63 µM | TGI (HOP-92 NSCLC): 22.9 µM | GI50 (NCI/ADR-RES ovarian): 1.93 µM | TGI (NCI/ADR-RES ovarian): 16.3 µM | GI50 (OVCAR-3 ovarian): 1.82 µM | TGI (OVCAR-3 ovarian): 4.78 µM | GI50 (SR leukemia): 1.53 µM | TGI (SR leukemia): 12.1 µM | GI50 (A549 NSCLC): 3.99 µM | TGI (A549 NSCLC): > 100 µM | GI50 (MDA-MB-435): 0.328 µM | TGI (MDA-MB-435): 1.9 µM | GI50 (786-0 renal): 4.51 µM | TGI (786-0 renal): 16.2 µM | GI50 (NCI-H23 lung): 3.43 µM | TGI (NCI-H23 lung): 39.3 µM | GI50 (HT29 colon): 2.41 µM | TGI (HT29 colon): 7.39 µM | GI50 (M14 melanoma): 3.42 µM | TGI (M14 melanoma): 13.6 µM | GI50 (LOX IMVI melanoma): 4.67 µM | TGI (LOX IMVI melanoma): 28.1 µM | GI50 (NCI-H522 lung): 1.31 µM | TGI (NCI-H522 lung): 3.91 µM | GI50 (CAKI-1 renal): 1.93 µM | TGI (CAKI-1 renal): 13.4 µM | GI50 (COLO 205 colon): 2.14 µM | TGI (COLO 205 colon): 5.23 µM | GI50 (U251 CNS): 2.36 µM | TGI (U251 CNS): 21.1 µM | GI50 (MOLT-4 leukemia): 4.07 µM | TGI (MOLT-4 leukemia): 43.1 µM | GI50 (UO-31 renal): 3.18 µM | TGI (UO-31 renal): 15 µM | GI50 (OVCAR-8 ovarian): 4.64 µM | TGI (OVCAR-8 ovarian): 55.8 µM | GI50 (HCC-2998 colon): 4.11 µM | TGI (HCC-2998 colon): 81.1 µM | GI50 (DU-145 prostate): 3.43 µM | TGI (DU-145 prostate): 15.3 µM | GI50 (UACC-62 melanoma): 3.31 µM | TGI (UACC-62 melanoma): 22.6 µM | GI50 (SF-295 CNS): 1.8 µM | TGI (SF-295 CNS): 5.72 µM | GI50 (UACC-257 melanoma): 5.18 µM | TGI (UACC-257 melanoma): 42.8 µM | GI50 (PC-3 prostate): 4.84 µM | TGI (PC-3 prostate): > 100 µM
